Columns and labels:
Honeybee [1] = experiment: Ecotoxicity: honeybee, chronic larvae; format: in vivo
Excerpt: (§1) The ecotoxicity of flumetylsulforim was investigated in numerous studies in accordance with the strict requirements for the approval of active substances in the EU.

Bobwhite quail = experiment: Ecotoxicity: birds, acute; format: in vivo
Excerpt: as §1

[2] = tested on: Soil microbial activity (Nitrogen activity); experiment: Ecotoxicity: soil microbial activity, long-term
Excerpt: as §1

[3] = tested on: Microsphaera diffusa (powdery mildew)
Experimental: Microsphaera diffusa (powdery mildew) is artificially inoculated by spraying the inoculum on the leaves few days after the application.
To test for fungicidal control of Microsphaera diffusa (powdery mildew), the soybean plants, grown in pots, are sprayed at V2 with each of the above treatments. 5 pots with 3 soybean plants each are considered, each treatment counts for 4 replicates.
Between 14 and 21 days from the inoculation, the severity (%) of the infection is assessed.

Rainbow trout = experiment: Ecotoxicity: fish, long-term; format: in vivo
Excerpt: as §1

Botrytis cinerea = experiment: Grey mould in strawberry, pot trial, foliar treatment; format: in vivo; settings: 250 OD at 450 g ai/ha, 3 applications, last assessment
Experimental: The compound of formula I 250 OD was tested at different doses, namely 400, 450 and 500 g ai/ha as depicted in the table below and compared to an untreated control as well as two reference products, SCALA (pyrimethanil 400 g/L) at 1000 g ai/ha and SIGNUM (boscalid+pyraclostrobin 26.7+[…]) at 600 g ai/ha.
Botrytis cinerea was artificial inoculated by spraying the inoculum on the leaves 3-4 days before the application.
To test for fungicidal control of Botrytis cinerea, the strawberry plants, grown in pots, were sprayed with each of the above treatments. 5 pots of 22 cm of diameter (the soil used for the trial is a mix of peat and perlite) with 1 plant each were used, 1 pot per replicate (each treatment is made of 4 replicates) was considered.
Each of the treatments was applied 3 times (ABC) according to the disease development as follows: A, early curative (before the disease symptoms appear; 3-4 days after the artificial inoculation), B, 7-10 days from A and C, to be evaluated in function of the disease development (7-10 days from B).
At the first symptoms the following parameters were assessed: • percentage of affected leaf area (% severity) • percentage of affected leaves (% incidence) • percentage of affected fruit area (% severity) • percentage of affected fruits (% incidence)

M. fijiensis = experiment: Black sigatoka on banana plants in climatic chamber; format: in vivo, Mycosphaerella fijiensis
Experimental: The banana plants used for this experimentation were obtained from vitro-plants Cavendish type furnished by VITROPIC S.A. (France). One-month old plants (2 fully deployed leaves: F2 (oldest leaf) and F1 and the cigar leaf) are treated (see details in the table below) were inoculated with a calibrated mycelial seed-inoculum of a mixture of 4 M. fijiensis strains (for each treatment, 3 repetitions (banana plants) are considered). Banana leaves of each plant were treated on their upper (adaxial) and lower (abaxial) face and then incubated for one hour under a laminar flow in order to let dry the fungicide droplets. After inoculation, banana plants were transferred in climatic chamber: 25° C. day/18° C. night, photoperiod of 16 h light/8 h dark and 100% Relative Humidity. From 28 days to 56 days post inoculation (dpi) each banana plants is observed and the disease intensity severity (DSI: Disease Severity Index) is evaluated over time in order to determine the AUDPC (Area Under Disease Progress Curve)—Table 12, and the fungicidal efficacy expressed in percent of the untreated control—Table 13.

Rat = experiment: Ecotoxicity: mammals, acute; format: in vivo
Excerpt: as §1

Common oat = experiment: Non-target terrestrial plants, vegetative vigour; format: in vivo
Excerpt: as §1

Maize = experiment: Non-target terrestrial plants, vegetative vigour; format: in vivo
Excerpt: as §1

Ryegrass = experiment: Non-target terrestrial plants, vegetative vigour; format: in vivo
Excerpt: as §1

Oil seed rape = experiment: Non-target terrestrial plants, vegetative vigour; format: in vivo
Excerpt: as §1

Soybean = experiment: Non-target terrestrial plants, vegetative vigour; format: in vivo
Excerpt: as §1

Sunflower = experiment: Non-target terrestrial plants, vegetative vigour; format: in vivo
Excerpt: as §1

Sugar beet = experiment: Non-target terrestrial plants, vegetative vigour; format: in vivo
Excerpt: as §1

Cucumber = experiment: Non-target terrestrial plants, vegetative vigour; format: in vivo
Excerpt: as §1

Onion = experiment: Non-target terrestrial plants, vegetative vigour; format: in vivo
Excerpt: as §1

Carrot = experiment: Non-target terrestrial plants, vegetative vigour; format: in vivo
Excerpt: as §1

Rabbit = experiment: Ecotoxicity: mammals, long-term; format: in vivo
Excerpt: as §1

Eisenia fetida = experiment: Ecotoxicity: earthworms, long-term; format: in vivo
Excerpt: as §1

[4] = Ecotoxicity: algae, long-term; format: in vivo; settings: in vivo, Green alga
Excerpt: as §1

Green alga = experiment: Ecotoxicity: algae, long-term; format: in vivo; settings: wheats and barley at 2 × 100 g/ha
Excerpt: as §1

Phytophtora infestans = format: in vivo; settings: potato; 150 g ai/ha vs CUPRIZOL S 330 g ai/ha
Honeybee [5] = experiment: Ecotoxicity: honeybee, acute oral; format: in vivo
Excerpt: as §1

[6] = Ecotoxicity: aquatic invertebrates, acute; format: in vivo; settings: in vivo, Daphnia magna
Excerpt: as §1

Daphnia magna = experiment: Ecotoxicity: aquatic invertebrates, acute; format: in vivo; settings: wheats and barley at 2 × 100 g/ha
Excerpt: as §1

Honeybee [7] = experiment: Ecotoxicity: honeybee, acute contact; format: in vivo
Excerpt: as §1

Honeybee [8] = experiment: Ecotoxicity: honeybee, chronic oral; format: in vivo
Excerpt: as §1

[9] = wheats and barley at 2 × 100 g/ha

Experimental for Cercospora kikushi: The trial is carried out in open field and no artificial inoculation is performed.
To test for fungicidal control against the late season disease, each plot (3 m×5 m) is sprayed with one of the treatments from Table 17. Each treatment is made of 4 replicates.
Three applications are made, the first approximately 14 days before flowering followed by a second one at R1 and the third at R1+14 days. A fourth application is considered based on the development of the disease.
Assessments are done before all sprays and at 7, 14 and 21 days after the last spray. The whole plot is assessed considering the 3 plant parts (bottom, mid and upper). The final grade is the mean of the 3 scores (bottom, mid and upper).
The whole plot is assessed for defoliation. The defoliation assessment takes place at R6-R7 stage when the untreated control reaches 80 to 90% defoliation. The harvest assessment is done from the middle of the plot covering at least 8 m 2/plot.
Experimental for Ramularia areola: The objective of the trial is to assess the fungicidal effect of ADF-16 against Ramularia areola on cotton, compared to an untreated control and a reference product.
ADF-16 is tested at different doses, namely at 50, 100, 150 and 200 g ai/ha as depicted in the table below.
Ramularia areola is artificially inoculated by spraying the conidia on the plants, previously sprayed with the fungicide.
To test for fungicidal control of Ramularia areola, the cotton plants, grown in pots, are sprayed at first true leaf fully open with each of the above treatments. 5 pots with 3 cotton plants each are considered, each treatment counts for 4 replicates.
Between 25 and 30 days from the inoculation the severity (%) of the infection is assessed.

Cc1ccc(S(=O)(=O)n2cc(F)c(=N)n(C)c2=O)cc1 [compound of formula I, 5-fluoro-4-imino-3-methyl-1-tosyl-3,4-dihydropyrimidin-2(1H)-one]
NOEC (Honeybee [1]): NOEC > 250 mg/kg diet
Risk at current use pattern (Honeybee [1]; [9]): Acceptable
control of Ramularia areola (Ramularia areola; cotton, 50-200 g ai/ha): effectively controls
phytotoxicity (Ramularia areola; in vivo): no significant phytotoxicity
LD50 (Bobwhite quail): LD50 > 2000 mg/kg bw
Ecotoxicity endpoint (nitrogen activity) ([2]; soil microbial activity): >10.3 mg/kg dws
Risk at current use pattern ([2]; soil microbial nitrogen activity, wheats and barley at 2 × 100 g/ha): Acceptable
phytotoxicity ([3]; in vivo): no significant phytotoxicity
control of Microsphaera diffusa ([3]; soybean, 50-200 g ai/ha): effectively controls
NOEC (Rainbow trout): NOEC = 0.128 mg/L
Risk at current use pattern (Rainbow trout; [9]): Acceptable
control (fungicide efficacy on leaf severity) (Botrytis cinerea): more than 90%
control of Mycosphaerella fijiensis in banana (conclusion) (M. fijiensis): efficiently controlling
LD50 (Rat): LD50 > 2000 mg/kg bw
Risk at current use pattern (Rat; [9]): Acceptable
ER50 (Common oat): ER50 > 189 g/ha
Risk at current use pattern (Common oat; [9]): Acceptable
ER50 (Maize): ER50 > 189 g/ha
Risk at current use pattern (Maize; [9]): Acceptable
ER50 (Ryegrass): ER50 > 189 g/ha
Risk at current use pattern (Ryegrass; [9]): Acceptable
ER50 (Oil seed rape): ER50 > 189 g/ha
Risk at current use pattern (Oil seed rape; [9]): Acceptable
ER50 (Soybean): ER50 > 189 g/ha
Risk at current use pattern (Soybean; [9]): Acceptable
ER50 (Sunflower): ER50 > 189 g/ha
Risk at current use pattern (Sunflower; [9]): Acceptable
ER50 (Sugar beet): ER50 > 189 g/ha
Risk at current use pattern (Sugar beet; [9]): Acceptable
ER50 (Cucumber): ER50 > 189 g/ha
Risk at current use pattern (Cucumber; [9]): Acceptable
ER50 (Onion): ER50 > 189 g/ha
Risk at current use pattern (Onion; [9]): Acceptable
ER50 (Carrot): ER50 > 189 g/ha
Risk at current use pattern (Carrot; [9]): Acceptable
phytotoxicity (Cercospora kikushi; in vivo): no significant phytotoxicity
control of Cercospora kikushi (Cercospora kikushi; soybean, 50, 100 and 200 g ai/ha): effectively controls
NOED (Rabbit): NOED = 15 mg/kg bw/d
Risk at current use pattern (Rabbit; [9]): Acceptable
NOEC (Eisenia fetida): NOEC = 309 mg/kg dws
Risk at current use pattern (Eisenia fetida; [9]): Acceptable
EC50 [4]: > 10 µg/mL
Risk at current use pattern (Green alga): Acceptable
control versus reference treatment (Phytophtora infestans): significant better control than the reference treatment
LD50 (Honeybee [5]): LD50 > 3.727 μg/bee
EC50 [6]: > 10 µg/mL
Risk at current use pattern (Daphnia magna): Acceptable
LD50 (Honeybee [7]): LD50 > 50 μg/bee
LD50 (Honeybee [8]): LD50 = 16.0 μg/bee/d
